Data published in article PMC11864979, “First-in-class ultralong-target-residence-time p38α inhibitors as a mitosis-targeted therapy for colorectal cancer” (Nature Cancer, 2025).
Values joined by “and” are separate entries in the source; they are usually repeats but may differ in a detail not shown here. Equal values may be shown once.

What was measured:
PDO4 = assay: cell viability in patient-derived CRC organoids PDO4; assay type: cell-based, human; details: Fig. 3e, replicates
Description: (§1) For in vitro treatment studies, organoids were mechanically dissociated and digested using TrypLE supplemented with 100 µg ml^−1 DNaseI and 10.5 µM Y-27632 dihydrochloride (Invitrogen) at 37 °C. A total of 1,000–2,000 single cells were plated per well in white 96-well plates (Greiner) in culture medium containing 10% GFR Matrigel or Cultrex BME. The treatment with doxycycline (5 µg ml^−1), pharmacological inhibitors or corresponding volumes of DMSO was started 24 h after plating. Doxycycline was obtained from Sigma-Aldrich. […] Cell viability was measured by means of CellTiter-Glo 3D or CellTiter-Glo 2.0 reagent (Promega) according to the manufacturers’ instructions and the Infinite M Plex reader (Tecan, i-control version 3.9.1 software). Results were normalized to vehicle (DMSO) or to shNC. For cell-doubling assays, the cell number was quantified at the corresponding time points using Guava EasyCyte flow cytometer (Luminex, CytoSoft v5.2 software).

PDO2 = assay: cell viability in patient-derived CRC organoids PDO2; assay type: cell-based, human; details: Fig. 3c, replicates; for viability at 1 µM: Homo sapiens
Description: as §1

KAP^2D cells = assay: western blot analysis of p38α signaling in KAP^2D cells; assay type: cell-based, mouse; details: 1 µM, 1 day
Description: Proteins were extracted from cells and organoids using radioimmunoprecipitation assay extraction buffer (50 mM Tris pH 8.0, 150 mM NaCl, 1% Triton X-100, 0.5% sodium deoxycholate, 0.1% SDS, 5 mM EDTA and 1 mM EGTA) supplemented with protease and phosphatase inhibitors (cOmplete and PhosSTOP, Roche). Protein concentrations were measured using the DC (detergent compatible) Protein Assay (Bio-Rad). Briefly, 20–30 µg of protein was separated by SDS–PAGE and transferred onto PVDF membranes (Immobilon-P, Millipore). Membranes were blocked in 5% BSA and Tris-buffered saline (TBS)–Tween buffer and then incubated with primary antibodies overnight at 4 °C and with horseradish peroxidase-conjugated secondary antibodies for 1 h at room temperature. All used antibodies and dilutions are listed in the Nature Portfolio Reporting Summary. The blots were visualized using the ChemiDoc MP Imaging System (BIO-RAD) and ImageLab version 5.2.1 software. Vinculin and β-actin were used as loading controls.

[1] = system: KAP liver metastasis in Rag2^−/− mice; assay: survival of Rag2^−/− mice with KAP liver metastasis; assay type: in vivo, mouse
Description: Subcutaneous injection, splenic seeding or cecum injection of organoids was performed in 8–10-week-old C57BL/6 N/Crl, Rag2^−/− (B6.Cg-Rag2^tm1.1Cgn/J), or CB17 Scid beige (CB17.Cg-Prkdc^scidLyst^bg-J/Crl) mice, obtained from Charles River. The organoids were dissociated into single cells, washed with PBS and injected in a 1:1 mixture of PBS and Matrigel. For murine organoids, 1 × 10^5 cells were injected into the left and right flanks or the spleen capsule and 2 × 10^6 cells were injected into the cecum wall. For human organoids, 4 × 10^5 cells were injected into the flanks of CB17 Scid beige mice. For splenic seeding and cecum injection, mice were anaesthetized using ketamine (100 mg kg^−1, intraperitoneally) and xylazin (10 mg/kg, intraperitoneally) in NaCl and a small laparotomy below the thorax was performed.

[2] = system: subcutaneous human PDO6 CRCs; assay: treatment of subcutaneous human PDO6 CRCs in CB17 Scid beige mice; assay type: in vivo, mouse
Description: Subcutaneous injection, splenic seeding or cecum injection of organoids was performed in 8–10-week-old C57BL/6 N/Crl, Rag2^−/− (B6.Cg-Rag2^tm1.1Cgn/J), or CB17 Scid beige (CB17.Cg-Prkdc^scidLyst^bg-J/Crl) mice, obtained from Charles River. The organoids were dissociated into single cells, washed with PBS and injected in a 1:1 mixture of PBS and Matrigel. For murine organoids, 1 × 10^5 cells were injected into the left and right flanks or the spleen capsule and 2 × 10^6 cells were injected into the cecum wall. For human organoids, 4 × 10^5 cells were injected into the flanks of CB17 Scid beige mice. For splenic seeding and cecum injection, mice were anaesthetized using ketamine (100 mg kg^−1, intraperitoneally) and xylazin (10 mg/kg, intraperitoneally) in NaCl and a small laparotomy below the thorax was performed. Upon injection, the puncture region was washed with prewarmed H2O. Within the first week after operation, the mice were treated with the analgesics carprofen and metamizol. The maximum size of individual tumor nodules permitted by the regional authority of the state of Baden-Wuerttemberg (Regierungspraesidium Tübingen: subcutaneous tumor nodules, 1 cm; other tumor nodules, 0.5 cm) was not exceeded.

[3] = system: KAP-shMapk14 and KAP-shNC organoids; assay: cell viability in KAP-shMapk14 and KAP-shNC organoids treated with doxycycline and 2015; assay type: cell-based, mouse; parameters: Cell viability (%): concentration or dose not given beside the values; details: for Cell viability (%): individual replicates, relative to shNC + DMSO
Description: To produce retroviral particles, Phoenix packaging cells were transfected with retroviral DNA (pRT3GEPIR and pR-BRAF^V600E-Puro) through calcium phosphate transfection. The viral supernatant, supplemented with polybrene (5 µg ml^−1) was applied on cells or dissociated organoids and the infected cultures were selected with puromycin (3 µg ml^−1). Expression of shRNAs and GFP was induced with 5 µg ml^−1 doxycycline (Sigma).
as §1

[4] = weight development of treated mice; assay type: in vivo, mouse
Description: No mice were excluded during treatment studies. […] GFP imaging of tumors was performed using a Hamamatsu imaging system. For quantification of compounds in the murine plasma, 20 μl of tail-vein blood was diluted with 80 μl of heparin solution, before 200 μl of ice-cold acetonitrile with a defined internal standard was added. The samples were sonicated and centrifuged and the supernatant was subjected to liquid chromatography-mass spectrometry quantification. Full blood analyses were performed with the Sysmex KX-21N hematology analyzer.

[5] = cell viability in healthy human colon organoids SCC311; assay type: cell-based; details: female, human, ED Fig. 10f, replicates
Description: (§2) Primary tumor material was chopped, washed in ice-cold medium and transferred into basic medium (Supplementary Table 17), supplemented with 2.5 mg ml^−1 collagenase II (Thermo Fisher Scientific), 2.5 mg ml^−1 collagenase XI (Sigma-Aldrich), 1 mg ml^−1 Dispase II (Sigma-Aldrich), 100 µg ml^−1 DNase I and 10.5 µM Y-27632 dihydrochloride (Invitrogen). Tumor digestion was performed at 37 °C and stopped by adding medium containing 10% FBS. The mixture was centrifuged for 5 min at 300g. Red blood cells were removed with ACK lysing buffer (Thermo Fisher Scientific; 5 min at room temperature) and the pellet was resuspended in medium. Approximately 1,000 cells were resuspended and plated in 50 µl of Cultrex RGF BME, type 2 (R&D Systems). The ascites material was pelleted by centrifugation at 300g and washed three times with ice-cold PBS. Human CRC organoids were cultured in human CRC medium (Supplementary Table 17) at 37 °C and 7% CO2. Within the first week, the medium was supplemented with 10.5 µM Y-27632 dihydrochloride (Invitrogen). The human colon organoids (SCC311 and SCC321) were purchased from Sigma-Aldrich and cultured in human colon medium (Supplementary Table 17) at 37 °C and 7% CO2. They were derived from participants with the following sex and age: […].
as §1

[6] = system: SCC311 human colon organoids; assay: as above; assay type: cell-based; details: for Cell viability (%): ED Fig. 10f, replicates
Description: as §2, §1

## CNC(=O)c1ccc2c(c1)C(=O)c1ccc(Nc3ccc(F)c(NC(=O)C4CC4)c3)cc1CC2 [Compound 2015]
PDO4; 0,5 µM, 5 µM
  Cell viability (%): 13.84% and 14.01%
PDO4; 0,25 µM, 25 µM
  Cell viability (%): 62.38% and 62.93%
PDO4; 1 µM
  Cell viability (%): 11.63% and 11.83%
PDO4; Homo sapiens, 0,25 µM
  viability at 25 µM: 60%
PDO4; Homo sapiens, 1 µM
  viability at 1 µM: 11.2%
PDO2; 0,5 µM, 5 µM
  Cell viability (%): 17.11% and 9.01% and 7.93%
PDO2; 0,25 µM
  Cell viability (%): 30.33% and 26.25%
PDO2; 1 µM
  Cell viability (%): 8.07% and 8.23%
  viability at 1 µM: 10.5%
KAP^2D cells
  MK2^T334 phosphorylation (in words): strongly reduced
[1]; KAP liver metastasis
  treatment response in Rag2^−/− mice (in words): strong treatment response
[1]; single animals, 1 = event, Fig. 6i
  Survival: 40 d of treatment and 34 d of treatment and 32 d of treatment and 39 d of treatment and 38 d of treatment and 25 d of treatment
[2]; individual subcutaneous PDO6 tumors, treated 4 weeks
  Tumor weight: 25 g and 16 g and 4 g and 32 g
[2]; treated for 4 weeks
  tumor size of PDO6-derived CRCs (in words): strong reduction in tumor size
[3]; doxycycline-induced Mapk14-shRNA expression
  response of KAP-shMapk14.2605 organoids (in words): did not respond
[3]; shMapk14.2605 + 2015
  Cell viability (%): 22.20% and 48.13% and 45.94%
[3]; shNC + 2015
  Cell viability (%): 31.98% and 25.43% and 20.36%
[4]; day 12
  Weight development (%): 100.0% and 97.9% and 100.9% and 99.3% and 97.1%
[4]; day 14
  Weight development (%): 100.9% and 97.9% and 97.4% and 99.6% and 101.1% and 98.2% and 100.0%
[4]; day 16
  Weight development (%): 102.6% and 98.7% and 97.0% and 100.9% and 101.1% and 99.3%
[4]; day 18
  Weight development (%): 103.8% and 98.7% and 97.4% and 101.3% and 100.7% and 100.0% and 101.8%
[4]; day 20
  Weight development (%): 102.6% and 98.7% and 97.9% and 101.3% and 100.4% and 100.0%
[4]; day 22
  Weight development (%): 106.4% and 100.4% and 98.7% and 100.0% and 103.3% and 101.1% and 101.4%
[4]; day 24
  Weight development (%): 105.1% and 103.0% and 100.0% and 101.8% and 100.4% and 101.1%
[4]; day 26
  Weight development (%): 106.4% and 100.8% and 101.7% and 102.2% and 101.5% and 100.4% and 101.1%
[4]; day 28
  Weight development (%): 106.8% and 103.4% and 100.9% and 101.3% and 103.7% and 100.7% and 101.1%
[4]; day 30
  Weight development (%): 110.3% and 105.1% and 101.7% and 105.3% and 101.5% and 100.7% and 101.1%
[4]; day 32
  Weight development (%): 106.0% and 105.5% and 102.6% and 102.2% and 102.9% and 101.4%
[4]; day 34
  Weight development (%): 106.8% and 104.7% and 100.9% and 103.5% and 106.2% and 101.1% and 100.4%
[4]; day 36
  Weight development (%): 108.1% and 103.8% and 103.9% and 105.7% and 107.0% and 99.6% and 100.0%
[4]; day 38
  Weight development (%): 109.8% and 107.2% and 103.0% and 106.1% and 109.9% and 100.7% and 101.4%
[4]; day 40
  Weight development (%): 110.3% and 103.4% and 103.0% and 106.6% and 100.7% and 99.3%
[4]; day 42
  Weight development (%): 109.4% and 106.4%
[4]; mouse, in vivo
  body weight over time (in words): did not lose body weight
[5]; healthy human colon organoids SCC311, 2015 0,5 µM
  viability at 5 µM: 96%
[5]; healthy human colon organoids SCC311, 2015 0,25 µM
  viability at 25 µM: 113%
[6]; 2015 0,5 µM, 5 µM
  Cell viability (%): 94.54% and 77.32%
[6]; 2015 0,25 µM, 25 µM
  Cell viability (%): 97.45% and 99.37%
[6]; 2015 1 µM
  Cell viability (%): 74.60% and 77.39% and 95.83%
[6]; SCC311, 4 d
  response of healthy human colon culture (in words): only a very weak response

## O=C(NCCN1CCOCC1)c1ccc2c(c1)C(=O)c1ccc(Nc3ccc(F)c(NC(=O)c4ccccc4)c3)cc1CC2 [Compound 1639]
PDO4; 0,5 µM, 5 µM
  Cell viability (%): 53.06% and 53.55%
PDO4; 0,25 µM, 25 µM
  Cell viability (%): 68.57% and 69.02%
PDO4; 1 µM
  Cell viability (%): 67.76% and 68.24%
PDO4; Homo sapiens, 0,5 µM
  viability at 5 µM: 50.2%
PDO4; Homo sapiens, 0,25 µM
  viability at 25 µM: 67.4%
PDO4; Homo sapiens, 1 µM
  viability at 1 µM: 66.9%
PDO2; 0,5 µM, 5 µM
  Cell viability (%): 69.57% and 95.69% and 90.88%
PDO2; 0,25 µM
  Cell viability (%): 93.94% and 86.22% and 63.24%
PDO2; 1 µM
  Cell viability (%): 53.19% and 51.96%
  viability at 1 µM: 68.7%
KAP^2D cells
  MK2^T334 phosphorylation (in words): reduced MK2^T334 phosphorylation
